Data from US12485169B2, “Compounds” (GREY WOLF THERAPEUTICS LIMITED, priority 2018, dated 2025).
pIC50: −log10 of the molar value.

Target: T1, Purified ERAP1 (37-941)-10His (ERAP1) (Homo sapiens, UniProt Q9NZ08)
T1 construct: Purified ERAP1 (37-941)-10His (ERAP1)
Experiment: ERAP1 mediated hydrolysis of an amide substrate (10-mer inhibition assay), biochemical system
Conditions: 10-mer substrate, 23° C., 1 h, excitation 279 nm / emission 355 nm; read-out: IC50 vs Decapeptide WRVYEKC(Dnp)ALK-acid (where Dnp is Dinitrophenyl maleimide) (10-mer)

T1 sequence (Q9NZ08 37-941): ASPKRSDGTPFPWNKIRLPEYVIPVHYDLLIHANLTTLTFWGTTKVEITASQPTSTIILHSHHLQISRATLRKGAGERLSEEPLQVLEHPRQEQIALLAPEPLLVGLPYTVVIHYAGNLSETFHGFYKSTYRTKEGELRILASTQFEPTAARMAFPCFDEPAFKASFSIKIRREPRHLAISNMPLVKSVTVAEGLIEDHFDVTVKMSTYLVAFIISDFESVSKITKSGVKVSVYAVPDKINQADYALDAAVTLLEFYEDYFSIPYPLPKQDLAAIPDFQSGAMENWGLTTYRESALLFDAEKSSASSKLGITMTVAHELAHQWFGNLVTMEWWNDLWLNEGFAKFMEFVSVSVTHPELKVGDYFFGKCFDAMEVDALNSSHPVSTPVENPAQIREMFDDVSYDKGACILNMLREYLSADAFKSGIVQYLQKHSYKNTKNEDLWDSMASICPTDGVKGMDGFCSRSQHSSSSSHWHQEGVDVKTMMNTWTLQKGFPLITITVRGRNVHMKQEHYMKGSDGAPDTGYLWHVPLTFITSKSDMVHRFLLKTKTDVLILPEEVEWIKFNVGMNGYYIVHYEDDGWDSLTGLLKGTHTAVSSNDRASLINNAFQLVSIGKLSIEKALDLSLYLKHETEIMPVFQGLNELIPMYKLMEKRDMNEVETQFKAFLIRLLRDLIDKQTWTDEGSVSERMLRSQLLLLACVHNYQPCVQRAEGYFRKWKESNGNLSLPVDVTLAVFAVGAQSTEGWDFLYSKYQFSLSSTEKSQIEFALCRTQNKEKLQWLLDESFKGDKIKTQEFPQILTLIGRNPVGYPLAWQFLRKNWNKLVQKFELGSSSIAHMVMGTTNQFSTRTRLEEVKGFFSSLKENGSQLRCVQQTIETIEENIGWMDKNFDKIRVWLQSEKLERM

Row | SMILES | pIC50
1 | COc1ccc(C(=O)O)cc1S(=O)(=O)Nc1cc(C(F)(F)F)ccc1N1CCC(C)(C)C1 [Example 39, 3-(N-(2-(3,3-dimethylpyrrolidin-1-yl)-5-(trifluoromethyl)phenyl)sulfamoyl)-4-methoxybenzoic acid] | > 5.30
2 | COc1ccc(C(=O)O)cc1S(=O)(=O)Nc1cc(C(F)(F)F)ccc1N1CCN(C(C)=O)CC1 [Example 34, 3-(N-(2-(4-acetylpiperazin-1-yl)-5-(trifluoromethyl)phenyl)sulfamoyl)-4-methoxybenzoic acid] | < 5.30
3 | O=C(O)c1cc(S(=O)(=O)Nc2cc(C(F)(F)F)ccc2N2CCCCC2)ccc1Cl [Example 83, 2-chloro-5-(N-(2-(piperidin-1-yl)-5-(trifluoromethyl)phenyl)sulfamoyl)benzoic acid] | > 5.30
4 | COc1ccc(C(=O)O)cc1S(=O)(=O)Nc1cc(C(F)(F)F)ccc1N1CCC2(CC1)OCc1ccccc12 [Example 33, 3-(N-(2-(spiro[isobenzofuran-1,4′-piperidin]-1′-yl)-5-(trifluoromethyl)phenyl)sulfamoyl)-4-methoxybenzoic acid] | > 6.30
5 | COc1ccc(C(=O)O)cc1S(=O)(=O)Nc1cc(C#N)ccc1N1CCCC(O)C1 (stereo not drawn) [Example 223, 3-(N-(5-cyano-2-(3-hydroxypiperidin-1-yl)phenyl)sulfamoyl)-4-methoxybenzoic acid] | > 6.30
6 | CCc1ccc(C(=O)O)cc1S(=O)(=O)Nc1cc(-c2cccnn2)ccc1N1CCCCC1 [Example 293, 4-ethyl-3-(N-(2-(piperidin-1-yl)-5-(pyridazin-3-yl)phenyl)sulfamoyl)benzoic acid] | > 6.30
7 | COc1ccc(C(=O)O)cc1S(=O)(=O)Nc1cc(Cl)c(Cl)cc1N1CCCCC1 [Example 202, 3-(N-(4,5-dichloro-2-(piperidin-1-yl)phenyl)sulfamoyl)-4-methoxybenzoic acid] | > 6.30
8 | COc1ccc(C(=O)O)cc1S(=O)(=O)Nc1cc(S(C)(=O)=O)ccc1N1CCC[C@@H](F)C1 [Example 269, I-3-(N-(2-(3-fluoropiperidin-1-yl)-5-(methylsulfonyl)phenyl)sulfamoyl)-4-methoxybenzoic acid] | > 6.30
9 | O=C(O)c1ccc(C2CC2)c(S(=O)(=O)Nc2cc(-n3cnnn3)ccc2N2CCCCC2)c1 [Example 323, 4-cyclopropyl-3-(N-(2-(piperidin-1-yl)-5-(tetrazol-1-yl)phenyl)sulfamoyl)benzoic acid] | > 6.30
10 | COc1ccc(C(=O)O)cc1S(=O)(=O)Nc1cc(C(F)(F)F)ccc1N1CCC(O)C(F)(F)C1 (stereo not drawn) [Example 14, 3-(N-(2-(3,3-difluoro-4-hydroxypiperidin-1-yl)-5-(trifluoromethyl)phenyl)sulfamoyl)-4-methoxybenzoic acid] | > 6.30
11 | COc1ccc(C(=O)O)cc1S(=O)(=O)Nc1cc(C(F)(F)F)ccc1N1C2CCCC1CC2 [Example 10, 3-(N-(2-(8-azabicyclo[3.2.1]octan-8-yl)-5-(trifluoromethyl)phenyl)sulfamoyl)-4-methoxybenzoic acid] | > 6.30
12 | COc1ccc(C(=O)O)cc1S(=O)(=O)Nc1cc(C#N)ccc1N1CCCC(F)(F)C1 [Example 233, 3-(N-(5-cyano-2-(3,3-difluoropiperidin-1-yl)phenyl)sulfamoyl)-4-methoxybenzoic acid] | > 6.30
13 | O=C(O)c1ccc(CO)c(S(=O)(=O)Nc2cc(C(F)(F)F)ccc2N2CCCCC2)c1 [Example 229, 4-(hydroxymethyl)-3-(N-(2-(piperidin-1-yl)-5-(trifluoromethyl)phenyl)sulfamoyl)benzoic acid] | > 6.30
14 | COc1ccc(C(=O)O)cc1S(=O)(=O)Nc1cc(C(F)(F)F)ccc1N(C)C [Example 77, 3-(N-(2-(dimethylamino)-5-(trifluoromethyl)phenyl)sulfamoyl)-4-methoxybenzoic acid] | > 5.30
15 | Cc1ccc(S(=O)(=O)Nc2cc(C(F)(F)F)ccc2N2CCCCC2)cc1C(=O)O [Example 70, 2-methyl-5-(N-(2-(piperidin-1-yl)-5-(trifluoromethyl)phenyl)sulfamoyl)benzoic acid] | > 5.30
16 | CCc1ccc(C(=O)O)cc1S(=O)(=O)Nc1cc(C#N)ccc1N1CCC[C@H](O)C1 [Example 263, (S)-3-(N-(5-cyano-2-(3-hydroxypiperidin-1-yl)phenyl)sulfamoyl)-4-ethylbenzoic acid] | > 6.30
17 | CS(=O)(=O)c1ccc(N2CCCC(F)(F)C2)c(NS(=O)(=O)c2cc(C(=O)O)ccc2C2CC2)c1 [Example 319, 4-cyclopropyl-3-(N-(2-(3,3-difluoropiperidin-1-yl)-5-(methylsulfonyl)phenyl)sulfamoyl)benzoic acid] | > 6.30
18 | COc1ccc(C(=O)O)cc1S(=O)(=O)Nc1cc(C(F)(F)F)ccc1N1CC(O)C1 [Example 37, 3-(N-(2-(3-hydroxyazetidin-1-yl)-5-(trifluoromethyl)phenyl)sulfamoyl)-4-methoxybenzoic acid] | > 5.30
19 | CCc1ccc(C(=O)O)cc1S(=O)(=O)Nc1cc(C(F)(F)F)ccc1N1CCCCCC1 [Example 61, 3-(N-(2-(azepan-1-yl)-5-(trifluoromethyl)phenyl)sulfamoyl)-4-ethylbenzoic acid] | < 5.30
20 | COc1ccc(C(=O)O)cc1S(=O)(=O)Nc1cc(S(C)(=O)=O)ccc1N1CCCCC1 [Example 207, 4-methoxy-3-(N-(5-(methylsulfonyl)-2-(piperidin-1-yl)phenyl)sulfamoyl)benzoic acid] | > 6.30
21 | NS(=O)(=O)c1ccc(N2CCCCC2)c(NS(=O)(=O)c2cc(C(=O)O)ccc2C2CC2)c1 [Example 329, 4-cyclopropyl-3-(N-(2-(piperidin-1-yl)-5-sulfamoylphenyl)sulfamoyl)benzoic acid] | > 6.30
22 | COc1ccc(C(=O)O)cc1S(=O)(=O)Nc1cc(-n2cnnn2)ccc1N1CCC[C@@H](O)C1 [Example 248, I-3-(N-(2-(3-hydroxypiperidin-1-yl)-5-(tetrazol-1-yl)phenyl)sulfamoyl)-4-methoxybenzoic acid] | > 6.30
23 | O=C(O)c1cc(F)cc(S(=O)(=O)Nc2cc(C(F)(F)F)ccc2N2CCCCC2)c1 [Example 59, 3-fluoro-5-(N-(2-(piperidin-1-yl)-5-(trifluoromethyl)phenyl)sulfamoyl)benzoic acid] | > 6.30
24 | O=C(O)c1cc(Cl)cc(S(=O)(=O)Nc2cc(C(F)(F)F)ccc2N2CCCCC2)c1 [Example 80, 3-chloro-5-(N-(2-(piperidin-1-yl)-5-(trifluoromethyl)phenyl)sulfamoyl)benzoic acid] | > 5.30
25 | COc1ccc(C(=O)O)cc1S(=O)(=O)Nc1cc(C(F)(F)F)ccc1N1CC[C@@H](O)C1 [Example 188, (R)-3-(N-(2-(3-hydroxypyrrolidin-1-yl)-5-(trifluoromethyl)phenyl)sulfamoyl)-4-methoxybenzoic acid] | > 5.30
26 | O=C(O)c1ccc(C2CC2)c(S(=O)(=O)Nc2cc(C(F)(F)F)ccc2N2CCC[C@@H](O)C2)c1 [Example 314, I-4-cyclopropyl-3-(N-(2-(3-hydroxypiperidin-1-yl)-5-(trifluoromethyl)phenyl)sulfamoyl)benzoic acid] | > 6.30
27 | COc1ccc(C(=O)O)cc1S(=O)(=O)Nc1cc(C(F)(F)F)ccc1N1CCN2CCC[C@@H]2C1 [Example 40, (R)-3-(N-(2-(hexahydropyrrolo[1,2-a]pyrazin-2(1H)-yl)-5-(trifluoromethyl)phenyl)sulfamoyl)-4-methoxybenzoic acid] | > 5.30
